# Test results as given in a melting point compilation (Tetko et al.; mined from patent text by program, amines drawn as free bases though some values may be those of a salt).
row,Compound,melting point [°C]
1,COc1ccc2c(n1)c(C=C[N+](=O)[O-])c1n2CCCO1,248 to 249
2,CCc1cc2c3c(ccc2[nH]1)OCC(CN1CC=C(c2c[nH]c4ccccc24)CC1)O3 (centres undefined),175 to 177
3,Cc1nc(NCc2ccccn2)[nH]c(=O)c1CCO,185
4,Oc1nc2ccc(Cl)cc2nc1O,> 260
5,CN1CCc2cc(S(=O)(=O)NC(=O)Nc3ccc(Cl)cc3)ccc21,145 to 147
6,"O=C1CCCCN1CCCC(=O)N1CCC(C2c3ncc(Br)cc3CCc3cc(Cl)cc(Br)c32)CC1 (single isomer, unassigned; (+))",101 to 102
7,CCc1c(N)c(C)cc(Cc2cc(C)c(N)c(CC)c2Cl)c1Cl,143 to 148
8,Cc1oc(-c2ccccc2)nc1COc1ccc(CON=C(CCCCCCC(=O)O)c2ccccc2)cc1,88 to 89
9,O=C(COC(=O)Cc1ccccc1Nc1cc2c(cc1Cl)CCC2)OCc1ccccc1,97 to 100
10,COC(=O)[C@@H]1C(=O)N(C)c2ccccc2C[C@H]1c1ccc2c(c1)OCO2 (racemic),125 to 127
11,COc1ccc(C2Sc3c(ccc4ccccc34)N(CCN(C)C)C(=O)C2OC)cc1 (centres undefined),118 to 120
12,CCCCC(=O)Nc1ccc(C2=N[C@H]3CCN(C)C[C@H]3c3cc(OC)c(OC)cc32)cc1 (relative stereo),230 to 235
13,NC(=O)C1CCc2cc3c(nc21)CCC3 (centres undefined),188
14,S=C1N[C@@H](c2ccccc2)[C@H](c2ccccc2)N1 (relative stereo),212 to 214
15,Cc1cccc(-c2ncc(NC(=O)OCc3ccccc3)c(=O)n2CC(=O)O)c1,183 to 185
16,COC(=O)c1ccc(=O)n(CCNC(=O)c2cnccn2)c1,195 to 197
17,COc1cc2c(cc1S(=O)(=O)c1ccc(OCc3ccc(Cl)cc3)cc1)CCN(C)CC2,120 to 122
18,CC(=O)N1c2ccccc2Sc2cc([N+](=O)[O-])ccc21,144 to 146
19,O=C(N[C@@H](Cc1ccccc1)C(=O)Oc1ccc([N+](=O)[O-])cc1)OCc1ccccc1,124 to 126
20,O=c1[nH]cc(-c2ccnc(Cl)c2)n1-c1ccc(F)cc1,270
21,CC(=NO)C(C)(C)COc1ccc(F)cc1,65 to 66
22,O=[N+]([O-])c1cc(Cl)c(Oc2cc(Cl)c(Cl)cc2Cl)cc1Oc1ccccc1,84
23,CCCCCC(=O)NS(=O)(=O)/C=C/c1cc(OC(C)C)nn1Cc1ccc(Cl)cc1Cl,73 to 75
24,CCn1ncc2c1ncc1c(N)nc3cc(C)nn3c12,248 to 250
25,CCOCc1c2c(n(Cc3ccccc3)c1-c1ccccc1)C(C)CN(Cc1ccccc1)C2 (centres undefined),96 to 98

row,Compound,melting point [°C]
1,O=C(SCC(SC(=O)c1ccccc1)C(=O)O)c1ccccc1 (centres undefined),116 to 118
2,Nc1ncnc2sc(Cc3ccncc3)c(-c3ccc(NC(=O)Nc4cccc(C(F)(F)F)c4)cc3)c12,162 to 166
3,CC(Cl)(Cl)C(NC(=O)c1cccc(Cl)c1)NC(=NC#N)Nc1ccc(Cl)nc1 (centres undefined),138 to 140
4,COc1ccc(CN(C)CCCOc2ccc(S(=O)(=O)c3c(C(C)C)cn4ccccc34)cc2)cc1OC,96 to 100
5,O=c1[nH]cnc2cc[nH]c12,> 300
6,Cc1nc(C)c(Cc2cccs2)c(NCc2ccc(-c3ccccc3-c3nnn[nH]3)cc2)n1,262 to 263
7,COC(=O)c1cc(F)c(-n2c(=O)[nH]n(C)c2=O)cc1F,156
8,O=C(O)Cc1cc(Cl)cc2c(-c3ccccc3)onc12,188 to 190
9,COc1ccc2c(c1)c(SC)c(C(=O)O)n2C,165
10,COc1cccc(Oc2ccc([N+](=O)[O-])cc2C#N)c1,102 to 104
11,CC(C)NC(=S)N1CCc2[nH]cnc2C1C(C)C (centres undefined),203
12,CC#Cc1ccc(NC(=O)c2ccccc2NCc2ccncc2)cc1C(F)(F)F,165 to 166
13,COc1ccc(C2C(C(=O)c3ccc(OC(F)(F)F)cc3)=C(O)C(=O)N2c2ccc(C)nn2)cc1 (centres undefined),279
14,Cc1cc(F)ccc1-c1ccc(S(=O)(=O)N2c3ccccc3CC2C(=O)NCCOc2ccc(C(=O)O)cc2)cc1 (centres undefined),96
15,CC(C)CCC(=O)N[C@@H](CC(C)C)C(=O)N[C@@H](C(C)C)[C@@H](O)c1c(-c2ccccc2)c1=O,148 to 151
16,O=C(O)c1ccc(NCCCc2ccccc2)cn1,167 to 169
17,O=C(O)CCCCCCc1ccccc1CO,75 to 77
18,CC(C)(C)c1cccc(S(=O)(=O)n2c(Cc3ccc(C(=O)NS(=O)(=O)c4ccccc4)cc3)cc3cc(C(F)(F)F)ccc32)c1,99
19,O=C(O)C(CC1CCCCC1)c1ccc(OCc2ccccn2)cc1 (centres undefined),100 to 103
20,COC(=O)C1Cc2c([nH]c3ccccc23)C(c2cc(OC)ccc2OC)N1 (centres undefined),102 to 105
21,C#CCNC1=NS(=O)(=O)N=C1NCCSCc1csc(NC(=N)N)n1,176 to 178
22,COc1cc(OC)c2c(=O)[nH]c(-c3ccc(OC)c(N4CCN(C(C)C)CC4)n3)nc2c1,208 to 210
23,Cc1c(I)c(=O)n(-c2cc(C(=O)OC(C)C)c(Cl)cc2F)c(=O)n1C,147 to 150
24,NC(=O)C1CCN(c2cc(-c3ccccc3)nc3ccc(F)cc23)CC1,230 to 233
